In brackets after ≈: the same amount, converted by molar mass. Non-standard residues stand in square brackets, D forms with d. Residues, ends and D or L forms follow the SMILES beside them. No end group written: not given here. rhodamine = not defined here
Key:
[1] = test system: Candida albicans (ATCC 10231); experiment: microbe, parasite or virus in culture; assay type: cell-based; conditions: for minimal inhibitory concentration (MIC): ATCC 10231, 24 h
Experimental: Candida albicans (ATCC© 10231^TM) was cultured in Sabouraud medium (Sigma-Aldrich) supplemented with tetracycline (10 μg/mL) and cefotaxime (10 μg/mL) at 37 °C for 24 h. Candida albicans (OD600nm = 0,001) were plated in 96-well plates and treated either with different concentrations of the peptides of interest, and/or with different concentrations of voriconazole (VCZ) (Sigma-Aldrich). As a positive control, cells were treated with 10 μg/mL VCZ. After 24 hours incubation, yeast growth was assessed by optical density OD600nm using a spectrophotometer (Multiscan EX). The MIC of the antifungal agents, defined as the lowest concentration of drug able to inhibit 100% of the growth of a pathogen was determined using a modified Gompertz model.

[2] = test system: proteases secreted by Candida albicans; experiment: Peptide stability in the supernatant of Candida albicans (HPLC); assay type: in vitro ADME; conditions: peptide 186 μg/mL = 100 μM in 100 μL filtered supernatant, 37 °C, 24 h; RP-HPLC C18, 214 nm; repeated three times
Experimental: The supernatant of Candida albicans was prepared as follows: a single colony of Candida albicans was resuspended in 5 mL of Sabouraud medium and incubated at 37 °C overnight. The culture was then centrifuged at 10000 g for 1 min and the supernatant was filtered using a 0.22 μm MillexH-GV (Merck Millipore). In order to check sterility, an aliquot of the supernatant was incubated at 37 °C for 48 h. The absence of growth was interpreted as a lack of viable microorganism.
100 μL of supernatant was then directly incubated or not with L-Ctl or D-Ctl (186 μg/mL = 100 μM) at 37 °C for 24 h. As a control, each peptide (186 μg/mL = 100 μM) as well as the combination ½ MICD-Ctl + ¼ MICVCZ were incubated in water (100 μL) at 37 °C for 24 h. Samples were then separated using a Dionex HPLC system (Ultimate 3000) on a Nucleosil reverse-phase 300–5C18-column (4.6 × 250 mm; particle size: 5 μm; porosity, 300 Å) (Macherey Nagel). Absorbance was monitored at 214 nm and the solvent system consisted of 0.1% (v/v) TFA in water (solvent A) and 0.09% (v/v) TFA in 70% (v/v) acetonitrile-water (solvent B). Elution was performed at a flow rate of 700 μL/min with a gradient of solvent B as indicated on the chromatograms. Each peak was manually collected.

[3] = test system: Candida albicans (ATCC 10231); experiment: Antifungal combination test D-Ctl + voriconazole (FIC index); assay type: cell-based
Experimental: Candida albicans (ATCC© 10231^TM) was cultured in Sabouraud medium (Sigma-Aldrich) supplemented with tetracycline (10 μg/mL) and cefotaxime (10 μg/mL) at 37 °C for 24 h. Candida albicans (OD600nm = 0,001) were plated in 96-well plates and treated either with different concentrations of the peptides of interest, and/or with different concentrations of voriconazole (VCZ) (Sigma-Aldrich). As a positive control, cells were treated with 10 μg/mL VCZ. After 24 hours incubation, yeast growth was assessed by optical density OD600nm using a spectrophotometer (Multiscan EX). The efficiency of the combination between D-Ctl and VCZ was determined by the calculation of the Fractional inhibitory concentration index (FICI) according to the following formula: FICI = FICD-Ctl + […] = (MICD-Ctl in combination/MICD-Ctl alone) + ([…] in combination/[…] alone) . According to EUCAST[38], the effect of the combination is synergistic if FICI ≤ 0,5, additive if 0,5 < FICI ≤ 1, indifferent if 1 < FICI < 2 and antagonistic if FICI ≥ 2.

Candida albicans = experiment: Time-lapse video microscopy of Candida albicans with rhodamine-labelled peptides; assay type: cell-based; conditions: for entry into C. albicans: 10 × MIC, 30 min incubation at 37 °C, fluorescence microscopy
Experimental: Diluted precultures (1/1000) of Candida albicans were incubated for 1 hour at 37 °C without agitation in glass bottom μ-Dish^35mm,high (Ibidi) previously treated with poly-L-lysine. […] To perform time-lapse video microscopy, the peptides were removed and replaced by Sabouraud medium. Yeasts were then plated at 37 °C, 5% CO2, on a Nikon Eclipse Ti inverted microscope equipped with an Andor Zyla sCMOS camera and a 60X objective. To prevent evaporation, a layer of mineral oil (Sigma) was added on top of the media prior imaging. Images (fluorescence and phase contrast) were captured every 10 min for 20 hours using Nikon NIS-Elements AR software, and processed with ImageJ.

| Compound | minimal inhibitory concentration (MIC) [1] [µg/mL] | stability in the supernatant of Candida albicans [2] | entry into C. albicans (Candida albicans) | other results |
| --- | --- | --- | --- | --- |
| CSCC[C@@H](NC(=O)[C@@H](CO)NC(=O)[C@H](N)CCCNC(=N)N)C(=O)N[C@H](CCCNC(=N)N)C(=O)N[C@H](CC(C)C)C(=O)N[C@H](CO)C(=O)N[C@H](Cc1ccccc1)C(=O)N[C@H](CCCNC(=N)N)C(=O)N[C@H](C)C(=O)N[C@H](CCCNC(=N)N)C(=O)NCC(=O)N[C@H](Cc1ccc(O)cc1)C(=O)NCC(=O)N[C@H](Cc1ccccc1)C(=O)N[C@H](CCCNC(=N)N)C(=O)O [D-Ctl, D-Cateslytin] (H-[dR][dS][dM][dR][dL][dS][dF][dR][dA][dR]G[dY]G[dF][dR]-OH) | 5.5 (≈ 2.96 µM) | still present |  |  |
| CSCC[C@H](NC(=O)[C@H](CO)NC(=O)[C@@H](N)CCCNC(=N)N)C(=O)N[C@@H](CCCNC(=N)N)C(=O)N[C@@H](CC(C)C)C(=O)N[C@@H](CO)C(=O)N[C@@H](Cc1ccccc1)C(=O)N[C@@H](CCCNC(=N)N)C(=O)N[C@@H](C)C(=O)N[C@@H](CCCNC(=N)N)C(=O)NCC(=O)N[C@@H](Cc1ccc(O)cc1)C(=O)NCC(=O)N[C@@H](Cc1ccccc1)C(=O)N[C@@H](CCCNC(=N)N)C(=O)O [L-Ctl, Cateslytin] (H-RSMRLSFRARGYGFR-OH) | 7.9 (≈ 4.25 µM) | the peak of L-Ctl disappeared |  |  |
| C[C@@H](c1ncncc1F)[C@](O)(Cn1cncn1)c1ccc(F)cc1F [VCZ, voriconazole] |  |  |  | MIC ([1]; Candida albicans, ATCC10231, lowest concentration inhibiting 100% of C. albicans growth, Sabouraud medium, 24 h, OD600nm, average of at least three experiments, read-out: minimal inhibitory concentration (MIC)): 0.07 µg/mL (≈ 0.2 µM); FIC (fractional inhibitory concentration) of the single agent in the combination ([3]; MIC in combination / MIC alone): 0.5; fold decrease of VCZ concentration by adding D-Ctl ([3]; with ½ MIC D-Ctl): 4; concentration of VCZ in the combination (¼ MIC VCZ) ([3]; with ½ MIC D-Ctl, kills 100% of C. albicans): 0.018 µg/mL |
| Rho-D-Ctl: D-Ctl with a rhodamine moiety on the N-terminal end, used for video microscopy (rhodamine-[dR][dS][dM][dR][dL][dS][dF][dR][dA][dR]G[dY]G[dF][dR]; reading uncertain) |  |  | able to enter | effect on colonies totally invaded (Candida albicans; Rho-D-Ctl 10 × MIC (55 μg/mL), time-lapse video microscopy): systematic arrest of fungal growth and ongoing cellular divisions |
| Rho-L-Ctl: L-Ctl with a rhodamine moiety on the N-terminal end, used for video microscopy (rhodamine-RSMRLSFRARGYGFR; reading uncertain) |  |  | able to enter |  |
